Experimental data from PubChem BioAssay AID308 (DTP/NCI, 2004).
Inconclusive results and toxic doses are left out.

Tested on: BDF1 mice, L1210 6-MP/6-TG resistant leukemia ip, survival T/C
Test: NCI In Vivo Anticancer Drug Screen. Data for tumor model L1210 Leukemia resistant to 6-MP and 6-Thioguanine; NSC 755, NSC 752 (intraperitoneal) in B6D2F1 (BDF1) mice
Conditions: endpoint: mean survival time, higher = longer survival
Description: The antitumor activity of compounds was measured in mice bearing transplantable tumors. Survival or tumor size were measured and the results are expressed as the measurement made in the treated group (T) divided by the measurement made in the vehicle treated control group (C). The tumor model used in this assay is L1210 Leukemia resistant to 6-MP and 6-Thioguanine; NSC 755, NSC 752 (intraperitoneal) in B6D2F1 (BDF1) mice

[1] = dose: 50.0 mg/kg/injection, schedule: Q01DX015 (ip), vehicle: carboxymethylcellulose (CMC)
[2] = dose: 100.0 mg/kg/injection, schedule: Q01DX015 (ip), vehicle: carboxymethylcellulose (CMC)
[3] = dose: 500.0 mg/kg/injection, schedule: Q01DX Z (ip), vehicle: saline
[4] = dose: 750.0 mg/kg/injection, schedule: Q01DX Z (ip), vehicle: saline

Question: `CCCn1cnc2c(=S)nc[nH]c21` was tested. Which T/C (dose: 12.5 mg/kg/injection, schedule: Q01DX015 (ip), vehicle: carboxymethylcellulose (CMC)) did it give?
Answer: 97 % of control

Question: And the T/C (dose: 25.0 mg/kg/injection, schedule: Q01DX015 (ip), vehicle: carboxymethylcellulose (CMC))?
Answer: 95 % of control

Question: What about the T/C [1] of the same molecule?
Answer: 101 % of control

Question: And the T/C [2]?
Answer: 96 % of control

Question: What does the source list for `Nc1ncnc2c1ccn2C1OC(CO)C(O)C1O` (configuration not stated)?
Answer: T/C (dose: 0.03 mg/kg/injection, schedule: Q01DX Z (ip), vehicle: carboxymethylcellulose (CMC)): 99 % of control; T/C (dose: 0.06 mg/kg/injection, schedule: Q01DX Z (ip), vehicle: carboxymethylcellulose (CMC)): 101 % of control; T/C (dose: 0.12 mg/kg/injection, schedule: Q01DX Z (ip), vehicle: carboxymethylcellulose (CMC)): 108 % of control; T/C (dose: 0.25 mg/kg/injection, schedule: Q01DX Z (ip), vehicle: carboxymethylcellulose (CMC)): 104 % of control; T/C (dose: 0.5 mg/kg/injection, schedule: Q01DX Z (ip), vehicle: carboxymethylcellulose (CMC)): 106 % of control; T/C (dose: 1.0 mg/kg/injection, schedule: Q01DX Z (ip), vehicle: carboxymethylcellulose (CMC)): 102 % of control; T/C (dose: 2.0 mg/kg/injection, schedule: Q01DX Z (ip), vehicle: carboxymethylcellulose (CMC)): 98 % of control

Question: Which results are given for `O=c1[nH]cnc2n[nH]nc12`?
Answer: T/C (dose: 278.0 mg/kg/injection, schedule: Q01DX009 (ip), vehicle: saline with Tween-80): 99 % of control; T/C (dose: 423.0 mg/kg/injection, schedule: Q01DX009 (ip), vehicle: Klucel (hydroxypropylcellulose) (HPC)): 96 % of control; T/C (dose: 423.0 mg/kg/injection, schedule: Q01DX009 (ip), vehicle: saline with Tween-80): 98 % of control; T/C (dose: 632.0 mg/kg/injection, schedule: Q01DX009 (ip), vehicle: Klucel (hydroxypropylcellulose) (HPC)): 100 % of control; T/C (dose: 632.0 mg/kg/injection, schedule: Q01DX009 (ip), vehicle: saline with Tween-80): 98 % of control; T/C (dose: 948.0 mg/kg/injection, schedule: Q01DX009 (ip), vehicle: saline with Tween-80): 94 % of control

Question: Which results are given for `C[C@H](N)C(=O)N[C@@H]1[C@H]2C(=C(O)C[C@@H](O)[C@@H]2O)C(=O)O[C@@H]1C`?
Answer: T/C (dose: 330.0 mg/kg/injection, schedule: Q01DX015 (ip), vehicle: carboxymethylcellulose (CMC)): 152 % of control; T/C [3]: 189 % of control; T/C [4]: 185 % of control; T/C (dose: 2000.0 mg/kg/injection, schedule: Q01DX Z (ip), vehicle: saline): 100 % of control

Question: Which T/C (dose: 375.0 mg/kg/injection, schedule: Q01DX Z (ip), vehicle: saline) does the source give for `O=CCC(O)C(O)C(O)CO` (configuration not stated) here?
Answer: 113 % of control

Question: What about the T/C [3] of the same molecule?
Answer: 113 % of control

Question: What about the T/C [4] of the same molecule?
Answer: 116 % of control

Question: What about the T/C (dose: 1000.0 mg/kg/injection, schedule: Q01DX Z (ip), vehicle: saline) of the same molecule?
Answer: 123 % of control

Question: How did the T/C (dose: 2.5 mg/kg/injection, schedule: Q01DX Z (ip), vehicle: water) turn out when `O=C(Nc1ccc(C2=NCCN2)cc1)c1cccc(C(=O)Nc2ccc(C3=NCCN3)cc2)c1` was run?
Answer: 110 % of control

Question: What about the T/C (dose: 10.0 mg/kg/injection, schedule: Q01DX Z (ip), vehicle: water) of the same molecule?
Answer: 300 % of control

Question: What about the T/C (dose: 20.0 mg/kg/injection, schedule: Q01DX Z (ip), vehicle: water) of the same molecule?
Answer: 187 % of control

Question: What does the source list for `OCC1OC(n2cnc3c(=S)nc[nH]c32)C(O)C1O` (configuration not stated)?
Answer: T/C (dose: 37.5 mg/kg/injection, schedule: Q01DX Z (ip), vehicle: carboxymethylcellulose (CMC)): 114 % of control; T/C [1]: 93 % of control; T/C (dose: 75.0 mg/kg/injection, schedule: Q01DX015 (ip), vehicle: carboxymethylcellulose (CMC)): 93 % of control; T/C (dose: 75.0 mg/kg/injection, schedule: Q01DX Z (ip), vehicle: carboxymethylcellulose (CMC)): 92 % of control; T/C [2]: 94 % of control; T/C (dose: 112.0 mg/kg/injection, schedule: Q01DX010 (ip), vehicle: carboxymethylcellulose (CMC)): 94 % of control; T/C (dose: 120.0 mg/kg/injection, schedule: Q01DX001 (ip), vehicle: carboxymethylcellulose (CMC)): 100 % of control; T/C (dose: 125.0 mg/kg/injection, schedule: Q01DX015 (ip), vehicle: carboxymethylcellulose (CMC)): 90 % of control; T/C (dose: 150.0 mg/kg/injection, schedule: Q01DX010 (ip), vehicle: carboxymethylcellulose (CMC)): 90 % of control; T/C (dose: 150.0 mg/kg/injection, schedule: Q01DX015 (ip), vehicle: carboxymethylcellulose (CMC)): 95 % of control; T/C (dose: 150.0 mg/kg/injection, schedule: Q01DX Z (ip), vehicle: carboxymethylcellulose (CMC)): 97 % of control; T/C (dose: 180.0 mg/kg/injection, schedule: Q01DX001 (ip), vehicle: alkali diluted with saline): 110 % of control; T/C (dose: 180.0 mg/kg/injection, schedule: Q01DX001 (ip), vehicle: carboxymethylcellulose (CMC)): 100 % of control; T/C (dose: 225.0 mg/kg/injection, schedule: Q01DX010 (ip), vehicle: carboxymethylcellulose (CMC)): 88 % of control; T/C (dose: 270.0 mg/kg/injection, schedule: Q01DX001 (ip), vehicle: alkali diluted with saline): 103 % of control; T/C (dose: 270.0 mg/kg/injection, schedule: Q01DX001 (ip), vehicle: carboxymethylcellulose (CMC)): 100 % of control; T/C (dose: 300.0 mg/kg/injection, schedule: Q01DX010 (ip), vehicle: carboxymethylcellulose (CMC)): 91 % of control; T/C (dose: 300.0 mg/kg/injection, schedule: Q01DX Z (ip), vehicle: carboxymethylcellulose (CMC)): 92 % of control; T/C (dose: 400.0 mg/kg/injection, schedule: Q01DX001 (ip), vehicle: alkali diluted with saline): 99 % of control; T/C (dose: 400.0 mg/kg/injection, schedule: Q01DX001 (ip), vehicle: carboxymethylcellulose (CMC)): 96 % of control; T/C (dose: 600.0 mg/kg/injection, schedule: Q01DX001 (ip), vehicle: alkali diluted with saline): 102 % of control; T/C (dose: 600.0 mg/kg/injection, schedule: Q01DX001 (ip), vehicle: carboxymethylcellulose (CMC)): 101 % of control; T/C (dose: 900.0 mg/kg/injection, schedule: Q01DX001 (ip), vehicle: alkali diluted with saline): 100 % of control

Question: What does the source list for `CC(=O)N(C)C`?
Answer: T/C (dose: 7.5 mg/kg/injection, schedule: Q01DX Z (ip), vehicle: saline): 115 % of control; T/C (dose: 15.0 mg/kg/injection, schedule: Q01DX Z (ip), vehicle: saline): 110 % of control; T/C (dose: 30.0 mg/kg/injection, schedule: Q01DX Z (ip), vehicle: saline): 107 % of control; T/C (dose: 62.5 mg/kg/injection, schedule: Q01DX Z (ip), vehicle: saline): 110 % of control; T/C (dose: 125.0 mg/kg/injection, schedule: Q01DX Z (ip), vehicle: saline): 114 % of control; T/C (dose: 250.0 mg/kg/injection, schedule: Q01DX Z (ip), vehicle: saline): 109 % of control; T/C [3]: 120 % of control

Question: Which T/C (dose: 1.0 mg/kg/injection, schedule: Q01DX Z (ip), vehicle: other) does the source give for `CC(=O)OCC1OC(n2cnc3c(=S)nc(N)[nH]c32)C(OC(C)=O)C1OC(C)=O` (configuration not stated) here?
Answer: 89 % of control

Question: And the T/C (dose: 2.0 mg/kg/injection, schedule: Q01DX Z (ip), vehicle: other)?
Answer: 89 % of control

Question: And the T/C (dose: 4.0 mg/kg/injection, schedule: Q01DX Z (ip), vehicle: other)?
Answer: 101 % of control

Question: And the T/C (dose: 6.0 mg/kg/injection, schedule: Q01DX Z (ip), vehicle: other)?
Answer: 92 % of control

Question: What about the T/C (dose: 12.5 mg/kg/injection, schedule: Q01DX Z (ip), vehicle: other) of the same molecule?
Answer: 98 % of control

Question: What about the T/C (dose: 25.0 mg/kg/injection, schedule: Q01DX Z (ip), vehicle: other) of the same molecule?
Answer: 93 % of control

Question: For `O=c1[nH]c(=O)n(C2CC(O)C(CO)O2)cc1Br` (configuration not stated), which T/C (dose: 20.0 mg/kg/injection, schedule: Q01DX Z (ip), vehicle: carboxymethylcellulose (CMC)) is on record?
Answer: 112 % of control

Question: What about the T/C (dose: 30.0 mg/kg/injection, schedule: Q01DX Z (ip), vehicle: carboxymethylcellulose (CMC)) of the same molecule?
Answer: 114 % of control

Question: What about the T/C (dose: 40.0 mg/kg/injection, schedule: Q01DX Z (ip), vehicle: carboxymethylcellulose (CMC)) of the same molecule?
Answer: 102 % of control

Question: What about the T/C (dose: 60.0 mg/kg/injection, schedule: Q01DX Z (ip), vehicle: carboxymethylcellulose (CMC)) of the same molecule?
Answer: 98 % of control

Question: And the T/C (dose: 93.0 mg/kg/injection, schedule: Q01DX Z (ip), vehicle: carboxymethylcellulose (CMC))?
Answer: 117 % of control

Question: What about the T/C (dose: 187.0 mg/kg/injection, schedule: Q01DX Z (ip), vehicle: carboxymethylcellulose (CMC)) of the same molecule?
Answer: 115 % of control

Question: What about the T/C (dose: 375.0 mg/kg/injection, schedule: Q01DX Z (ip), vehicle: carboxymethylcellulose (CMC)) of the same molecule?
Answer: 112 % of control

Question: And the T/C (dose: 500.0 mg/kg/injection, schedule: Q01DX Z (ip), vehicle: carboxymethylcellulose (CMC))?
Answer: 109 % of control
